Test results: ChEMBL document CHEMBL5131491, “N6-modification of 7-Deazapurine nucleoside analogues as Anti-Trypanosoma cruzi and anti-Leishmania agents: Structure-activity relationship exploration and In vivo evaluation” (Eur J Med Chem, 2022)
Calls of active or inactive are those of the source. No cut-off for these calls is given here.

Experiments:
[1] = Metabolic stability in mouse liver microsomes S9 fraction assessed as parent compound remaining at 5 uM incubated for 60 min in presence of UGT by liquid chromatography (reference value: 100 %); type: ADME, Microsome S9 fraction; settings: read-out: Stability
Trypanosoma cruzi [2] = test: Antitrypanosomal activity against Trypanosoma cruzi Y strain infected in acute CD Swiss Webster mouse model assessed as reduction in parasitemia at 12.5 mg/kg, po qd for 5 consecutive days by light microscopy relative to control; type: functional; design: scale not given: the % may be the effect or the level left; settings: time 5 day
Trypanosoma cruzi [3] = test: Antitrypanosomal activity against intracellular Trypanosoma cruzi Tulahuen amastigotes expressing CL2 beta-galactosidase in human MRC5 cells assessed as parasite growth inhibition using chlorophenol red beta-D-galactopyranoside as substrate treated for 7 days by spectrophotometry; type: functional, organism-based; settings: MRC5, 168 h
[4] = Metabolic stability in mouse liver microsomes S9 fraction assessed as parent compound remaining at 5 uM incubated for 30 mins in presence of NADPH by liquid chromatography (reference value: 100 %); type: ADME, Microsome S9 fraction; settings: read-out: Stability
[5] = Metabolic stability in hamster liver microsomes S9 fraction assessed as parent compound remaining at 5 uM incubated for 15 min in presence of NADPH by liquid chromatography (reference value: 100 %); type: ADME, Cricetulus griseus, Microsome S9 fraction; settings: chinese hamster, read-out: Stability
[6] = Metabolic stability in human liver microsomes S9 fraction assessed as parent compound remaining at 5 uM incubated for 15 min in presence of UGT by liquid chromatography (reference value: 100 %); type: ADME, Microsome S9 fraction; settings: read-out: Stability
[7] = Acute toxicity in acute CD Swiss Webster mouse model infected with Trypanosoma cruzi Y strain assessed as survival rate at 25 mg/kg, po administered for 5 consecutive days measured after 55 days post treatment (reference value: 100 %); type: organism-based; settings: in vivo, time 55 day
[8] = Metabolic stability in human liver microsomes S9 fraction assessed as parent compound remaining at 5 uM incubated for 30 min in presence of NADPH by liquid chromatography (reference value: 100 %); type: ADME, Microsome S9 fraction; settings: read-out: Stability
[9] = Toxicity in early curative hamster model assessed as severe toxicity at 50 mg/kg, po qd for 4 days measured on day 5; type: organism-based, Cricetulus griseus; settings: chinese hamster, in vivo, 120 h, time 5 day
[10] = Metabolic stability in mouse liver microsomes S9 fraction assessed as parent compound remaining at 5 uM incubated for 15 mins in presence of NADPH by liquid chromatography (reference value: 100 %); type: ADME, Microsome S9 fraction; settings: read-out: Stability
Trypanosoma cruzi [11] = test: Antitrypanosomal activity against Trypanosoma cruzi Y strain infected in acute CD Swiss Webster mouse model assessed as reduction in parasitemia at 25 mg/kg, po qd for 5 consecutive days by light microscopy relative to control; type: functional; design: scale not given: the % may be the effect or the level left; settings: time 5 day
Trypanosoma cruzi [12] = test: Antitrypanosomal activity against bloodstream extracellular Trypanosoma cruzi Y strain trypomastigotes assessed as reduction in parasite growth incubated for 96 hrs by light microscope; type: functional, organism-based
Leishmania infantum [13] = test: Antileishmanial activity against intracellular Leishmania infantum MHOM/MA(BE)/67 amastigotes infected in Swiss mouse peritoneal macrophages assessed as parasite growth inhibition incubated for 5 days by giemsa staining based microscopic analysis; type: functional, organism-based; settings: MHOM/MA(BE)/67, Macrophage, 120 h
Trypanosoma cruzi [14] = test: Antitrypanosomal activity against Trypanosoma cruzi Y strain infected in acute CD Swiss Webster mouse model assessed as reduction in parasitemia at 50 mg/kg, po qd for 5 consecutive days by light microscopy relative to control; type: functional; design: scale not given: the % may be the effect or the level left; settings: time 5 day
[15] = Metabolic stability in hamster liver microsomes S9 fraction assessed as parent compound remaining at 5 uM incubated for 30 min in presence of NADPH by liquid chromatography (reference value: 100 %); type: ADME, Cricetulus griseus, Microsome S9 fraction; settings: chinese hamster, read-out: Stability
[16] = Acute toxicity in acute CD Swiss Webster mouse model infected with Trypanosoma cruzi Y strain assessed as survival rate at 12.5 mg/kg, po administered for 5 consecutive days measured after 55 days post treatment (reference value: 100 %); type: organism-based; settings: in vivo, time 55 day
[17] = Metabolic stability in mouse liver microsomes S9 fraction assessed as parent compound remaining at 5 uM incubated for 30 min in presence of UGT by liquid chromatography (reference value: 100 %); type: ADME, Microsome S9 fraction; settings: read-out: Stability
[18] = Acute toxicity in acute CD Swiss Webster mouse model infected with Trypanosoma cruzi Y strain assessed as weight loss at 12.5 to 50 mg/kg, po qd administered for 5 consecutive days measured once a week; type: organism-based; settings: in vivo, 120 h, dose 12.5-50 mg/kg, time 5 day
[19] = Selectivity index, ratio of CC50 for human MRC-5 cells to EC50 for antitrypanosomal activity against intracellular Trypanosoma cruzi Tulahuen amastigotes expressing CL2 beta-galactosidase in human MRC5 cells; type: toxicity, cell-based; settings: read-out: Selectivity Index
[20] = Selectivity index, ratio of CC50 for Swiss mouse peritoneal macrophages to EC50 for antileishmanial activity against intracellular Leishmania infantum MHOM/MA(BE)/67 amastigotes infected in Swiss mouse peritoneal macrophages; type: toxicity, cell-based; settings: read-out: Selectivity Index
Leishmania infantum [21] = test: Antileishmanial activity against extracellular Leishmania infantum LEM3323-C14 promastigotes assessed as reduction in parasite growth incubated for 96 hrs by light microscope; type: functional, organism-based; settings: LEM3323-C14, 96 h
[22] = Metabolic stability in mouse liver microsomes S9 fraction assessed as parent compound remaining at 5 uM incubated for 15 min in presence of UGT by liquid chromatography (reference value: 100 %); type: ADME, Microsome S9 fraction; settings: read-out: Stability
[23] = Metabolic stability in hamster liver microsomes S9 fraction assessed as parent compound remaining at 5 uM incubated for 15 min in presence of UGT by liquid chromatography (reference value: 100 %); type: ADME, Cricetulus griseus, Microsome S9 fraction; settings: chinese hamster, read-out: Stability
Leishmania infantum [24] = test: Antileishmanial activity against extracellular Leishmania infantum […] PMM promastigotes assessed as reduction in parasite growth incubated for 96 hrs by light microscopy; type: functional, organism-based
[25] = Metabolic stability in human liver microsomes S9 fraction assessed as parent compound remaining at 5 uM incubated for 30 min in presence of UGT by liquid chromatography (reference value: 100 %); type: ADME, Microsome S9 fraction; settings: read-out: Stability
[26] = Cytotoxicity against human MRC5 fibroblast cells assessed as reduction in cell viability measured after 3 days by fluorometry; type: toxicity, cell-based; settings: time 3 day
[27] = Metabolic stability in mouse liver microsomes S9 fraction assessed as parent compound remaining at 5 uM incubated for 60 mins in presence of NADPH by liquid chromatography (reference value: 100 %); type: ADME, Microsome S9 fraction; settings: read-out: Stability
[28] = Cytotoxicity against Swiss mouse peritoneal macrophages assessed as reduction in cell viability measured after 5 days by microscopic analysis; type: toxicity, cell-based, Macrophage; settings: time 5 day
[29] = Toxicity in early curative hamster model assessed as clinical symptoms of toxicity at 50 mg/kg, po qd for 4 days; type: organism-based, Cricetulus griseus; settings: chinese hamster, in vivo, 96 h, time 4 day
[30] = Metabolic stability in human liver microsomes S9 fraction assessed as parent compound remaining at 5 uM incubated for 60 min in presence of NADPH by liquid chromatography (reference value: 100 %); type: ADME, Microsome S9 fraction; settings: read-out: Stability
[31] = Toxicity in early curative hamster model assessed as weight loss at 50 mg/kg, po qd for 4 days measured on day 2; type: organism-based, Cricetulus griseus; settings: chinese hamster, in vivo, 96 h, time 4 day
[32] = Metabolic stability in hamster liver microsomes S9 fraction assessed as parent compound remaining at 5 uM incubated for 30 min in presence of UGT by liquid chromatography (reference value: 100 %); type: ADME, Cricetulus griseus, Microsome S9 fraction; settings: chinese hamster, read-out: Stability
[33] = Metabolic stability in hamster liver microsomes S9 fraction assessed as parent compound remaining at 5 uM incubated for 60 min in presence of UGT by liquid chromatography (reference value: 100 %); type: ADME, Cricetulus griseus, Microsome S9 fraction; settings: chinese hamster, 1 h
[34] = Metabolic stability in hamster liver microsomes S9 fraction assessed as parent compound remaining at 5 uM incubated for 60 min in presence of NADPH by liquid chromatography (reference value: 100 %); type: ADME, Cricetulus griseus, Microsome S9 fraction; settings: chinese hamster, read-out: Stability
[35] = Metabolic stability in human liver microsomes S9 fraction assessed as parent compound remaining at 5 uM incubated for 15 min in presence of NADPH by liquid chromatography (reference value: 100 %); type: ADME, Microsome S9 fraction; settings: read-out: Stability
Trypanosoma cruzi [36] = test: Antitrypanosomal activity against Trypanosoma cruzi Y strain infected in acute CD Swiss Webster mouse model assessed as reduction in parasitemia at 12.5 to 25 mg/kg, po qd administered for 5 consecutive days by light microscopy; type: functional, organism-based; settings: dose 12.5-25 mg/kg, time 5.0 day
[37] = Toxicity in acute CD Swiss Webster mouse model infected with Trypanosoma cruzi Y strain assessed as animal survival at 50 mg/kg, po qd for 5 consecutive days measured daily for upto 30 days post-treatment; type: organism-based; settings: in vivo, 720 h, time < 30 day
[38] = Acute toxicity in acute CD Swiss Webster mouse model infected with Trypanosoma cruzi Y strain assessed as maximum tolerated dose administered orally once daily for 5 consecutive days; settings: in vivo, route po, time 5 day
Leishmania infantum [39] = test: Antileishmanial activity against extracellular Leishmania infantum […] MIL5C13 promastigotes assessed as reduction in parasite growth incubated for 96 hrs by light microscopy; type: functional, organism-based
[40] = Metabolic stability in human liver microsomes S9 fraction assessed as parent compound remaining at 5 uM incubated for 60 min in presence of UGT by liquid chromatography (reference value: 100 %); type: ADME, Microsome S9 fraction; settings: read-out: Stability

Compound: CNc1ncnc2c1ccn2[C@@H]1O[C@H](CO)[C@@H](O)[C@H]1O
- remaining at 1 h, 5 µM [1]: 98%
- Activity (Trypanosoma cruzi [2]): 75%
- EC50 (Trypanosoma cruzi [3]): 450 nM
- remaining at 0.5 h, 5 µM [4]: 96%
- remaining at 0.25 h, 5 µM [5]: 97%
- remaining at 0.25 h, 5 µM [6]: 99%
- survival at 1320 h [7]: 66.7%
- remaining at 0.5 h, 5 µM [8]: 95%
- Activity [9]: Toxic
- remaining at 0.25 h, 5 µM [10]: 96%
- Activity (Trypanosoma cruzi [11]): 89%
- EC50 (Trypanosoma cruzi [12]): > 24 µM
- EC50 (Leishmania infantum [13]): 490 nM
- Activity (Trypanosoma cruzi [14]): 96%
- remaining at 0.5 h, 5 µM [15]: 93%
- survival at 1320 h [16]: 83.3%
- remaining at 0.5 h, 5 µM [17]: 105%
- Activity [18]: Toxic
- selectivity ratio [19]: > 142
- selectivity ratio [20]: > 131
- EC50 (Leishmania infantum [21]): 8 µM
- remaining at 0.25 h, 5 µM [22]: 103%
- remaining at 0.25 h, 5 µM [23]: 102%
- EC50 (Leishmania infantum [24]): 2000 nM
- remaining at 0.5 h, 5 µM [25]: 104%
- CC50 at 72 h [26]: > 64 µM
- remaining at 1 h, 5 µM [27]: 107%
- CC50 at 120 h [28]: > 64 µM
- Activity [29]: Toxic
- remaining at 1 h, 5 µM [30]: 105%
- Activity [31]: Toxic
- remaining at 0.5 h, 5 µM [32]: 102%
- Stability [33]: 116%
- remaining at 1 h, 5 µM [34]: 103%
- remaining at 0.25 h, 5 µM [35]: 108%
- Activity (Trypanosoma cruzi [36]): Active
- Survival [37]: Toxic
- MTD at 120 h [38]: 12.5 mg/kg/day
- EC50 (Leishmania infantum [39]): 2380 nM
- remaining at 1 h, 5 µM [40]: 104%
